In brackets after ≈: the same amount, converted by molar mass. Where two headings read alike, the source gives them in different places.
How the values were obtained:
Type in all cases: cell-based
Staph. aureus 193 = experiment: antimicrobial activity (MIC), Table I; conditions: Staphylococcus aureus; Staph. aureus 193; read-out: MIC
Staph. aureus 209 P = experiment: antimicrobial activity (MIC), Table I; conditions: Staphylococcus aureus; Staph. aureus 209 P; read-out: MIC
Staph. aureus MS 9861 = experiment: antimicrobial activity (MIC), Table I; conditions: Staphylococcus aureus, MS9861; Staph. aureus MS 9861; read-out: MIC
Sarcina lutea PCI 1001 = experiment: antimicrobial activity (MIC), Table I; conditions: Micrococcus luteus, PCI1001; Sarcina lutea PCI 1001; read-out: MIC
B. subtilis NRRL B-558 = experiment: antimicrobial activity (MIC), Table I; conditions: Bacillus subtilis, NRRLB558; B. subtilis NRRL B-558; read-out: MIC
Coryn. bovis 1810 = experiment: antimicrobial activity (MIC), Table I; conditions: Corynebacterium bovis; Coryn. bovis 1810; read-out: MIC
E. coli NIHJ = experiment: antimicrobial activity (MIC), Table I; conditions: Escherichia coli; E. coli NIHJ; read-out: MIC
E. coli K-12 = experiment: antimicrobial activity (MIC), Table I; conditions: Escherichia coli, K12; E. coli K-12; read-out: MIC
E. coli K-12 R-5 = experiment: antimicrobial activity (MIC), Table I; conditions: Escherichia coli, K12R5; E. coli K-12 R-5; read-out: MIC
E. coli K-12 ML 1410 = experiment: antimicrobial activity (MIC), Table I; conditions: Escherichia coli, K12ML1410
E. coli K-12 LA 290 R 55 = experiment: antimicrobial activity (MIC), Table I; conditions: Escherichia coli
Kleb. pneumoniae PCI 602 = experiment: antimicrobial activity (MIC), Table I; conditions: Klebsiella pneumoniae, PCI602; Kleb. pneumoniae PCI 602; read-out: MIC
[1] = system: Shigella dysenteriae JS 11910; experiment: antimicrobial activity (MIC), Table I; conditions: JS11910
Sal. enteritidis 1891 = experiment: antimicrobial activity (MIC), Table I; conditions: Salmonella enterica; Sal. enteritidis 1891; read-out: MIC
Pro. vulgaris OX-19 = experiment: antimicrobial activity (MIC), Table I; conditions: Proteus vulgaris, OX19
B. subtilis ATCC 6633 = experiment: antimicrobial activity (MIC), Table II; conditions: Bacillus subtilis, ATCC6633; B. subtilis ATCC 6633; read-out: MIC
B. cereus = experiment: antimicrobial activity (MIC), Table II; conditions: Bacillus cereus; B. cereus; read-out: MIC
Staph. aureus ATCC 6538P = experiment: antimicrobial activity (MIC), Table II; conditions: Staphylococcus aureus, ATCC6538P
Staph. aureus KC-11 = experiment: antimicrobial activity (MIC), Table II; conditions: Staphylococcus aureus, KC11
Staph. aureus 226 = experiment: antimicrobial activity (MIC), Table II; conditions: Staphylococcus aureus
[2] = system: Staph. epidermidis IID 886; experiment: antimicrobial activity (MIC), Table II; conditions: Staphylococcus epidermidis, IID886
[3] = Pro. vulgaris OX-19, read-out: MIC
[4] = E. coli K-12 ML 1410, read-out: MIC
[5] = Staph. aureus ATCC 6538P, read-out: MIC
[6] = Staph. aureus KC-11, read-out: MIC
[7] = Staph. aureus 226, read-out: MIC

Row | SMILES | MIC (Staph. aureus 193) [µg/mL] | MIC (Staph. aureus 209 P) [µg/mL] | MIC (Staph. aureus MS 9861) [µg/mL] | MIC (Sarcina lutea PCI 1001) [µg/mL] | MIC (B. subtilis NRRL B-558) [µg/mL] | MIC (Coryn. bovis 1810) [µg/mL] | MIC (E. coli NIHJ) [µg/mL] | MIC (E. coli K-12) [µg/mL] | MIC (E. coli K-12 R-5) [µg/mL] | MIC (E. coli K-12 ML 1410) [µg/mL] | MIC (E. coli K-12 LA 290 R 55) [µg/mL] | MIC (Kleb. pneumoniae PCI 602) [µg/mL] | MIC [1] [µg/mL] | MIC (Sal. enteritidis 1891) [µg/mL] | MIC (Pro. vulgaris OX-19; [3]) [µg/mL] | MIC (B. subtilis ATCC 6633) [µg/mL] | MIC (B. cereus) [µg/mL] | MIC [2] [µg/mL] | also measured
1 | CCC1OC(=O)CC(O)C(C)C(OC2OC(C)C(O)C(N(C)C)C2O)C(CC=O)CC(C)C(=O)C=CC(C)=CC1CN(CC)CC (stereo not drawn) [Example 5, 23-deoxy-23-diethylamino mycaminosyl tylonolide] | 0.78 (≈ 1.19 µM) | 0.78 (≈ 1.19 µM) | 12.5 (≈ 19.1 µM) | < 0.2 | 0.78 (≈ 1.19 µM) | 0.78 (≈ 1.19 µM) | 1.56 (≈ 2.39 µM) | 1.56 (≈ 2.39 µM) | 1.56 (≈ 2.39 µM) | 3.12 (≈ 4.78 µM) | 3.12 (≈ 4.78 µM) | 1.56 (≈ 2.39 µM) | 1.56 (≈ 2.39 µM) | 3.12 (≈ 4.78 µM) | – | – | – | – | MIC (Pro. vulgaris OX-19): 1.56 µg/mL (≈ 2.39 µM)
2 | CCC1OC(=O)CC(O)C(C)C(OC2OC(C)CC(N(C)C)C2O)C(CC=O)CC(C)C(=O)C=CC(C)=CC1CN(C)C (stereo not drawn) [Example 9, 23,4'-dideoxy-23-dimethylaminomycaminosyl tylonolide] | < 0.2 | < 0.2 | 0.39 (≈ 0.641 µM) | 0.2 (≈ 0.329 µM) | < 0.2 | 0.2 (≈ 0.329 µM) | < 0.2 | 0.39 (≈ 0.641 µM) | 0.39 (≈ 0.641 µM) | 0.39 (≈ 0.641 µM) | 0.39 (≈ 0.641 µM) | 0.2 (≈ 0.329 µM) | < 0.2 | < 0.2 | – | – | – | – | MIC (Pro. vulgaris OX-19): 0.78 µg/mL (≈ 1.28 µM)
3 | CCCN(CCC)CC1C=C(C)C=CC(=O)C(C)CC(CC=O)C(OC2OC(C)C(O)C(N(C)C)C2O)C(C)C(O)CC(=O)OC1CC (stereo not drawn) [Example 6, 23-deoxy-23-dipropylaminomycaminosyl tylonolide] | < 0.2 | < 0.2 | 1.56 (≈ 2.29 µM) | < 0.2 | 0.39 (≈ 0.573 µM) | < 0.2 | 0.78 (≈ 1.15 µM) | 1.56 (≈ 2.29 µM) | 1.56 (≈ 2.29 µM) | 3.12 (≈ 4.58 µM) | 1.56 (≈ 2.29 µM) | 0.78 (≈ 1.15 µM) | 0.39 (≈ 0.573 µM) | 1.56 (≈ 2.29 µM) | 1.56 (≈ 2.29 µM) | – | – | – | –
4 | CCC1OC(=O)CC(O)C(C)C(OC2OC(C)CC(N(C)C)C2O)C(CC=O)CC(C)C(=O)C=CC(C)=CC1CN1CCCCCC1 (stereo not drawn) [Example 18, 23,4'-dideoxy-23-hexamethyleneiminomycaminosyl tylonolide] | < 0.2 | < 0.2 | 0.78 (≈ 1.18 µM) | < 0.2 | < 0.2 | < 0.2 | 0.39 (≈ 0.588 µM) | 0.78 (≈ 1.18 µM) | 0.78 (≈ 1.18 µM) | – | 0.78 (≈ 1.18 µM) | 0.39 (≈ 0.588 µM) | < 0.2 | < 0.2 | 0.78 (≈ 1.18 µM) | – | – | – | MIC (E. coli K-12 ML 1410; [4]): 0.78 µg/mL (≈ 1.18 µM)
5 | CCC1OC(=O)CC(O)C(C)C(OC2OC(C)CC(N(C)C)C2O)C(CC=O)CC(C)C(=O)C=CC(C)=CC1CN(CC)CC (stereo not drawn) [Example 10, 23,4'-dideoxy-23-diethylaminomycaminosyl tylonolide] | < 0.2 | < 0.2 | 0.78 (≈ 1.22 µM) | < 0.2 | < 0.2 | < 0.2 | < 0.2 | 0.39 (≈ 0.612 µM) | 0.39 (≈ 0.612 µM) | – | 0.39 (≈ 0.612 µM) | 0.2 (≈ 0.314 µM) | < 0.2 | 0.39 (≈ 0.612 µM) | 0.39 (≈ 0.612 µM) | – | – | – | MIC (E. coli K-12 ML 1410; [4]): 0.39 µg/mL (≈ 0.612 µM)
6 | CCC1OC(=O)CC(O)C(C)C(OC2OC(C)CC(N(C)C)C2O)C(CC=O)CC(C)C(=O)C=CC2(C)OC2C1CN(C)C (stereo not drawn) [Example 61, 23,4'-dideoxy-23-dimethylamino-12,13-epoxymycaminosyl tylonolide] | – | – | – | – | – | – | – | – | – | – | – | – | – | – | – | 0.78 (≈ 1.25 µM) | ≤ 0.2 | 0.78 (≈ 1.25 µM) | MIC (Staph. aureus ATCC 6538P; [5]): 0.78 µg/mL (≈ 1.25 µM); MIC (Staph. aureus KC-11; [6]): 0.78 µg/mL (≈ 1.25 µM); MIC (Staph. aureus 226; [7]): 1.56 µg/mL (≈ 2.5 µM)
7 | CCC1OC(=O)CC(O)C(C)C(OC2OC(C)CC(N(C)C)C2O)C(CC=O)CC(C)C(=O)C=CC(C)=CC1CN(C)CCO (stereo not drawn) [Example 66, 23,4'-dideoxy-23-N-(2-hydroxyethyl)methylaminomycaminosyl tylonolide] | – | – | – | – | – | – | – | – | – | – | – | – | – | – | – | 1.56 (≈ 2.44 µM) | ≤ 0.2 | 0.78 (≈ 1.22 µM) | MIC (Staph. aureus ATCC 6538P; [5]): 0.78 µg/mL (≈ 1.22 µM); MIC (Staph. aureus KC-11; [6]): 1.56 µg/mL (≈ 2.44 µM); MIC (Staph. aureus 226; [7]): 1.56 µg/mL (≈ 2.44 µM)
8 | CCC1OC(=O)CC(O)C(C)C(OC2OC(C)CC(N(C)C)C2O)C(CC=O)CC(C)C(=O)C=CC(C)=CC1COC(=O)CSc1ccccn1 (stereo not drawn) [Example 53, 23-O-(pyridine-2-thioyl)acetyl-4'-deoxymycaminosyl tylonolide] | – | – | – | – | – | – | – | – | – | – | – | – | – | – | – | 0.39 (≈ 0.532 µM) | ≤ 0.2 | ≤ 0.2 | MIC (Staph. aureus ATCC 6538P): 0.39 µg/mL (≈ 0.532 µM); MIC (Staph. aureus KC-11): 0.39 µg/mL (≈ 0.532 µM); MIC (Staph. aureus 226; 226): 0.39 µg/mL (≈ 0.532 µM)
